Test results as given in ChEMBL document CHEMBL2169878 (J Med Chem, 2012).
Activity calls are given as the source filed them. No cut-off for these calls is given here.

Assays:
[1] = biological target: T1, Chloroquine resistance transporter (Plasmodium falciparum) (UniProt Q9N623); experiment: Inhibition of chloroquine-resistant Plasmodium falciparum Dd2 CRT expressed in Xenopus laevis oocyte assessed as inhibition of [3H]chloroquine uptake at 100 uM measured from 1 to 2 hrs
T1 sequence (whole entry): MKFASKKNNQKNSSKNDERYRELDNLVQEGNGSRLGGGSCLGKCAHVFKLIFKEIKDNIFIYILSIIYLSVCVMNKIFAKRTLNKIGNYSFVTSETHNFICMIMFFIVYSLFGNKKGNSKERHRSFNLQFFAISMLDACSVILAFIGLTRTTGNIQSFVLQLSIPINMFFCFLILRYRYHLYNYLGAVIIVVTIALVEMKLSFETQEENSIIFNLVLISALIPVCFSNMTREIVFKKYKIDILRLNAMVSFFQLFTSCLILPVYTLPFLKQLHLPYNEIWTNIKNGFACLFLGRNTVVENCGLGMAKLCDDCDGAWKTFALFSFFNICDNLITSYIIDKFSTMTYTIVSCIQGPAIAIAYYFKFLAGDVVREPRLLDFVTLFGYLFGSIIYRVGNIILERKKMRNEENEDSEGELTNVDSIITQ

Plasmodium falciparum [2] = experiment: Antiplasmodial activity against chloroquine-sensitive Plasmodium falciparum D10 infected in human RBC after 72 hrs by parasite lactate dehydrogenase assay; assay type: functional, organism-based; details: D10, 72 h
Plasmodium falciparum [3] = experiment: Antiplasmodial activity against chloroquine-resistant Plasmodium falciparum W2 infected in human RBC after 72 hrs by parasite lactate dehydrogenase assay; assay type: functional, organism-based; details: W2, 72 h
Plasmodium falciparum [4] = experiment: Resistance ratio of IC50 for chloroquine-resistant Plasmodium falciparum W2 to IC50 for chloroquine-sensitive Plasmodium falciparum D10; assay type: functional
Plasmodium falciparum [5] = experiment: Antiplasmodial activity against chloroquine-resistant Plasmodium falciparum K1 infected in human erythrocytes assessed as inhibition of [3H]hypoxanthine incorporation incubated for 48 hrs prior to [3H]hypoxanthine addition measured after 48 hrs by liquid scintillation counting; assay type: functional, organism-based
Plasmodium falciparum [6] = experiment: Resistance ratio of IC50 for chloroquine-resistant Plasmodium falciparum K1 to IC50 for chloroquine-sensitive Plasmodium falciparum NF54; assay type: functional
Plasmodium falciparum [7] = experiment: Antiplasmodial activity against chloroquine-sensitive Plasmodium falciparum NF54 infected in human erythrocytes assessed as inhibition of [3H]hypoxanthine incorporation incubated for 48 hrs prior to [3H]hypoxanthine addition measured after 48 hrs by liquid scintillation counting; assay type: functional, organism-based
Salmonella typhimurium [8] = experiment: Mutagenicity against Salmonella typhimurium TA100 assessed as revertants at 2 uM incubated for 90 mins followed by drug washout measured after 2 days relative to positive control; assay type: toxicity, organism-based; details: salmonella enterica subsp. enterica serovar typhimurium
Salmonella typhimurium [9] = experiment: Mutagenicity against Salmonella typhimurium TA98 assessed as revertants at 2 uM incubated for 90 mins followed by drug washout measured after 2 days relative to positive control; assay type: toxicity, organism-based; details: salmonella enterica subsp. enterica serovar typhimurium, 1.5 h
Plasmodium berghei [10] = experiment: Antimalarial activity against Plasmodium berghei ANKA expressing GFP infected in mouse assessed as mean survival days at 30 mg/kg, po administered 24 hrs post-infection (reference value: 6 to 7 days); assay type: functional
Salmonella typhimurium [11] = experiment: Mutagenicity against Salmonella typhimurium TA98 assessed as revertants at 80 uM incubated for 90 mins followed by drug washout measured after 2 days relative to positive control; assay type: toxicity, organism-based; details: salmonella enterica subsp. enterica serovar typhimurium, 1.5 h
Salmonella typhimurium [12] = experiment: Mutagenicity against Salmonella typhimurium TA98 assessed as revertants at 16 uM incubated for 90 mins followed by drug washout measured after 2 days relative to positive control; assay type: toxicity, organism-based; details: salmonella enterica subsp. enterica serovar typhimurium
Salmonella typhimurium [13] = experiment: Mutagenicity against Salmonella typhimurium TA100 assessed as revertants at 80 uM incubated for 90 mins followed by drug washout measured after 2 days relative to positive control; assay type: toxicity, organism-based; details: salmonella enterica subsp. enterica serovar typhimurium
Salmonella typhimurium [14] = experiment: Mutagenicity against Salmonella typhimurium TA98 assessed as revertants at 4 uM incubated for 90 mins followed by drug washout measured after 2 days relative to positive control; assay type: toxicity, organism-based; details: salmonella enterica subsp. enterica serovar typhimurium
[15] = Cytotoxicity against mouse NIH3T3 cells after 24 hrs by neutral red dye uptake assay; assay type: cell-based; details: read-out: TC50
Plasmodium berghei [16] = experiment: Antimalarial activity against Plasmodium berghei ANKA expressing GFP infected in mouse assessed as cure from infection at 30 mg/kg, po administered 24 hrs post-infection measured on day 30; assay type: functional, organism-based; set-up: dose 30 mg/kg
Plasmodium berghei [17] = experiment: Antimalarial activity against Plasmodium berghei ANKA expressing GFP infected in mouse assessed as reduction in parasitemia at 30 mg/kg, po administered 24 hrs post-infection measured 48 hrs post-dosing by flow cytometric analysis; assay type: functional; set-up: scale not given: the % may be the effect or the level left
Plasmodium berghei [18] = experiment: Antimalarial activity against Plasmodium berghei ANKA expressing GFP infected in mouse assessed as mean survival days at 100 mg/kg, po administered 24 hrs post-infection (reference value: 6 to 7 days); assay type: functional
Salmonella typhimurium [19] = experiment: Mutagenicity against Salmonella typhimurium TA98 assessed as revertants at 40 uM incubated for 90 mins followed by drug washout measured after 2 days relative to positive control; assay type: toxicity, organism-based; details: salmonella enterica subsp. enterica serovar typhimurium
Plasmodium berghei [20] = experiment: Antimalarial activity against Plasmodium berghei ANKA expressing GFP infected in mouse assessed as cure from infection at 100 mg/kg, po administered 24 hrs post-infection measured on day 30; assay type: functional, organism-based; set-up: dose 100 mg/kg
Salmonella typhimurium [21] = experiment: Mutagenicity against Salmonella typhimurium TA100 assessed as revertants at 40 uM incubated for 90 mins followed by drug washout measured after 2 days relative to positive control; assay type: toxicity, organism-based; details: salmonella enterica subsp. enterica serovar typhimurium
Salmonella typhimurium [22] = experiment: Mutagenicity against Salmonella typhimurium TA100 assessed as revertants at 4 uM incubated for 90 mins followed by drug washout measured after 2 days relative to positive control; assay type: toxicity, organism-based; details: salmonella enterica subsp. enterica serovar typhimurium, 1.5 h
Salmonella typhimurium [23] = experiment: Mutagenicity against Salmonella typhimurium TA98 assessed as revertants at 24 uM incubated for 90 mins followed by drug washout measured after 2 days relative to positive control; assay type: toxicity, organism-based; details: salmonella enterica subsp. enterica serovar typhimurium, 1.5 h
Plasmodium berghei [24] = experiment: Antimalarial activity against Plasmodium berghei ANKA expressing GFP infected in mouse assessed as reduction in parasitemia at 100 mg/kg, po administered 24 hrs post-infection measured 48 hrs post-dosing by flow cytometric analysis; assay type: functional; set-up: scale not given: the % may be the effect or the level left
Salmonella typhimurium [25] = experiment: Mutagenicity against Salmonella typhimurium TA100 assessed as revertants at 16 uM incubated for 90 mins followed by drug washout measured after 2 days relative to positive control; assay type: toxicity, organism-based; details: salmonella enterica subsp. enterica serovar typhimurium
Salmonella typhimurium [26] = experiment: Mutagenicity against Salmonella typhimurium TA100 assessed as revertants at 24 uM incubated for 90 mins followed by drug washout measured after 2 days relative to positive control; assay type: toxicity, organism-based; details: salmonella enterica subsp. enterica serovar typhimurium
[27] = Cytotoxicity against human HepG2 cells after 24 hrs by neutral red dye uptake assay; assay type: cell-based; details: read-out: TC50
[28] = biological target: Chloroquine resistance transporter (Plasmodium falciparum, UniProt Q9N623); experiment: Inhibition of chloroquine-resistant Plasmodium falciparum Dd2 CRT expressed in Xenopus laevis oocyte assessed as inhibition of [3H]chloroquine uptake measured from 1 to 2 hrs

| SMILES | inhibition [1] | IC50 (Plasmodium falciparum [2]) [µM] | IC50 (Plasmodium falciparum [3]) [µM] | IC50 (Plasmodium falciparum [5]) [µM] | IC50 (Plasmodium falciparum [7]) [µM] | other results |
| --- | --- | --- | --- | --- | --- | --- |
| Fc1cc(C(Nc2ccnc3cc(Cl)ccc23)c2cccc(Cl)c2)ccc1CN1CCCC1 (racemic) | 70% | 0.009 | 0.025 |  |  |  |
| Clc1ccc(C(Nc2ccnc3cc(Cl)ccc23)c2ccc(CN3CCN(Cc4ccccc4)CC3)cc2)cc1 (racemic) |  | 0.163 | 0.79 |  |  | Ratio IC50 (Plasmodium falciparum [4]): 4.8 |
| COc1ccc2nccc(NC(c3ccc(Cl)cc3)c3ccc(CN4CCNCC4)cc3)c2c1 (racemic) |  | 0.067 | 0.163 | 0.058 | 0.021 | Ratio IC50 (Plasmodium falciparum [6]): 2.8; Ratio IC50 (Plasmodium falciparum [4]): 2.4 |
| Clc1cccc(C(Nc2ccnc3cc(Cl)ccc23)c2ccc(CN3CCN(c4ccnc5cc(Cl)ccc45)CC3)c(Cl)c2)c1 (racemic) |  | 0.104 | 0.058 | 0.01 | 0.083 |  |
| COc1ccc2nccc(NC(c3ccc(Cl)cc3)c3ccc(CN4CCCC4)c(F)c3)c2c1 (racemic) |  | 0.058 | 0.069 | 0.033 | 0.025 |  |
| CN1CCN(Cc2ccc(C(Nc3ccnc4cc(Cl)ccc34)c3ccc(Cl)cc3)cc2)CC1 (racemic) | Active | 0.021 | 0.042 |  |  | Ratio IC50 (Plasmodium falciparum [4]): 2 |
| Clc1ccc(C(Nc2ccnc3cc(Cl)ccc23)c2ccc(CN3CCCC3)cc2)cc1 (racemic) | 70% |  |  |  |  | Ratio IC50 (Plasmodium falciparum [6]): 1.1; Ratio IC50 (Plasmodium falciparum [4]): 1.6 |
| COc1ccc2nccc(NC(c3cccc(Cl)c3)c3ccc(CN4CCCC4)c(F)c3)c2c1 (racemic) |  | 0.041 | 0.101 |  |  |  |
| Clc1cccc(C(Nc2ccnc3cc(Cl)ccc23)c2ccc(CN3CCOCC3)c(Cl)c2)c1 (racemic) |  | 0.442 | 0.277 | 0.107 | 0.047 |  |
| COc1cc(C(Nc2ccnc3cc(Cl)ccc23)c2ccc(Cl)cc2)ccc1CN1CCCC1 (racemic) |  | 0.031 | 0.048 |  |  |  |
| Clc1ccc(C(Nc2ccnc3cc(Cl)ccc23)c2ccc(CN3CCCC3)c(Cl)c2)cc1 (racemic) | 70% | 0.0084 | 0.028 |  |  | Activity (Salmonella typhimurium [8]): 4%; Activity (Salmonella typhimurium [9]): 17%; MSD (Plasmodium berghei [10]): 7.7 days; Activity (Salmonella typhimurium [11]): 0%; Activity (Salmonella typhimurium [12]): 3%; Activity (Salmonella typhimurium [13]): 1%; Activity (Salmonella typhimurium [14]): 0%; CC50 at 24 h [15]: 16 µM; Activity (Plasmodium berghei [16]): inactive; Activity (Plasmodium berghei [17]): 99.4%; MSD (Plasmodium berghei [18]): 14 days; Activity (Salmonella typhimurium [19]): 10%; Activity (Plasmodium berghei [20]): inactive; Activity (Salmonella typhimurium [21]): 8%; Activity (Salmonella typhimurium [22]): 3%; Activity (Salmonella typhimurium [23]): 10%; Activity (Plasmodium berghei [24]): 99.5%; Activity (Salmonella typhimurium [25]): 1%; Activity (Salmonella typhimurium [26]): 4%; CC50 at 24 h [27]: 4 µM |
| Clc1ccc(C(Nc2ccnc3cc(Cl)ccc23)c2ccc(CN3CCN(Cc4ccc(C(Nc5ccnc6cc(Cl)ccc56)c5ccc(Cl)cc5)cc4)CC3)cc2)cc1 (racemic) |  | 0.19 | 0.098 | 0.056 | 0.089 | Ratio IC50 (Plasmodium falciparum [6]): 0.6; Ratio IC50 (Plasmodium falciparum [4]): 0.5 |
| COc1ccc2nccc(NC(c3cccc(Cl)c3)c3ccc(CN4CCOCC4)c(Cl)c3)c2c1 (racemic) |  | 0.198 | 0.229 | 0.114 | 0.081 |  |
| Clc1ccc(C(c2ccccc2)(c2ccc(CN3CCCC3)cc2)n2ccnc2)cc1 (racemic) | Active |  |  |  |  |  |
| COc1ccc(CCN(C)CCCC(C#N)(c2ccc(OC)c(OC)c2)C(C)C)cc1OC (stereo not drawn) | 74% |  |  |  |  |  |
| Clc1ccc(C(c2ccc(CN3CCCC3)cc2)N2CCN(c3ccnc4cc(Cl)ccc34)CC2)cc1 (racemic) | 58% | 0.631 | 0.735 | 0.156 | 0.088 |  |
| Clc1ccccc1C(c1ccccc1)(c1ccccc1)n1ccnc1 [CLOTRIMAZOLE] |  |  |  |  |  | CC50 at 24 h [15]: > 48 µM; CC50 at 24 h [27]: > 48 µM |
| Clc1cccc(C(Nc2ccnc3cc(Cl)ccc23)c2ccc(CN3CCCC3)c(Cl)c2)c1 (racemic) |  | 0.057 | 0.05 | 0.019 | 0.013 |  |
| Clc1ccc(C(c2ccc(Cl)cc2)(c2ccc(CN3CCCC3)cc2)N2CCN(c3ccnc4cc(Cl)ccc34)CC2)cc1 | 42% | 0.277 | 0.582 | 0.092 | 0.091 |  |
| CC(C)(C)NC(=O)[C@@H]1C[C@@H]2CCCC[C@@H]2CN1C[C@@H](O)[C@H](Cc1ccccc1)NC(=O)[C@H](CC(N)=O)NC(=O)c1ccc2ccccc2n1 |  |  |  |  |  | IC50 [28]: 13 µM |
| FC(F)(F)c1ccc2c(NC(c3cccc(Cl)c3)c3ccc(CN4CCCC4)c(Cl)c3)ccnc2c1 (racemic) |  | 0.074 | 0.111 | 0.046 | 0.034 |  |
| COc1ccc2nccc(NC(c3ccc(Cl)cc3)c3ccc(CN4CCCC4)c(Cl)c3)c2c1 (racemic) |  | 0.024 | 0.076 |  |  |  |
